From patent US11242351B2, “Tricyclic inhibitors of the BCL6 BTB domain protein-protein interaction and uses thereof” (priority 2017, dated 2022)
Read-outs that look alike come from different tables or passages of the source.

Legend:
[1] = target: BCL6 BTB domain (biotin-thrombin-BCL6 amino acids 1-129) (Homo sapiens (Human), UniProt P41182); test: Surface Plasmon Resonance (SPR) assay; type: binding; conditions: Biacore T200, single cycle kinetic analysis
Method: Surface Plasmon Resonance (SPR) Assay
SPR studies were performed using a Biacore™ T200 instrument (GE Health Sciences Inc.). […] The Biacore flow rate was set at 100 μl/min. […] Curve fitting and KD calculations were performed with the Biacore T200 Evaluation software (GE Health Sciences Inc).

[2] = tested on: BCL6 reporter construct in SuDHL4-3×BCL6-TK-Luc cells; test: Cell-based luciferase assay (BCL6 reporter); conditions: 48 h, read-out: Luc IC50
Procedure, shortened: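 SuDHL4 cells stably carrying a 3×BCL6-site TK-promoter firefly luciferase reporter, 15,000 cells/well, dosed over 10 concentrations (top 10 μM) and cultured two days at 37° C, 5% CO2. Luciferase luminescence read after room-temperature equilibration with neolite reagent.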

[3] = tested on: Karpas422 cells; test: Tumor cell growth inhibition assay; type: cell-based; conditions: Homo sapiens, KARPAS-422, 144 h, read-out: GI Karpas EC50
Procedure, shortened: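 Karpas422 cells were dosed over a 10-point concentration range (top 5 μM) and grown 6 days at 37 °C, 5% CO2, in Alpha-MEM with 10% FBS. Viability was read as ATPlite luminescence.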

[4] = SuDHL4-3×BCL6-TK-Luc cells, two days
[5] = Karpas422 cells, six days, ATPlite

| SMILES | Kd [1] [µM] | IC50 [2, 4] [µM] | EC50 [3, 5] [µM] | IC50 [2] [µM] | EC50 [3] [µM] |
| --- | --- | --- | --- | --- | --- |
| CCN1CCN(c2cc(NC(=O)Cn3cc(-c4cc(C(N)=O)c(O)c(F)c4F)c4c(=O)n5c(nc43)CCCC5)c(Cl)c(F)n2)[C@@H](C)C1 [I-43, (S)-5-(1-(2-((3-chloro-6-(4-ethyl-2-methyl-piperazin-1-yl)-2-fluoropyridin-4-yl)amino)-2-oxoethyl)-4-oxo-1,4,6,7,8,9-hexahydropyrido [1,2-a]pyrrolo[2,3-d]pyrimidin-3-yl)-3,4-difluoro-2-hydroxy-benzamide] | 0.0428 | 0.232 | 0.24 |  |  |
| C[C@H]1CN(C2COC2)CCN1c1cc(NC(=O)Cn2cc(-c3cc(C(N)=O)c(O)c(F)c3F)c3c(=O)n4c(nc32)CCCC4)c(Cl)c(F)n1 [I-44, (S)-5-(1-(2-((3-chloro-2-fluoro-6-(2-methyl-4-(oxetan-3-yl)piperazin-1-yl)pyridin-4-yl)amino)-2-oxo-ethyl)-4-oxo-1,4,6,7,8,9-hexahydropyrido [1,2-a]pyrrolo[2,3-d]pyrimidin-3-yl)-3,4-difluoro-2-hydroxy-benzamide] | 0.025 |  |  | 0.104 | 0.31 |
| C[C@H]1CN(CC2CC2)CCN1c1cc(NC(=O)Cn2cc(-c3cc(C(N)=O)c(O)c(F)c3F)c3c(=O)n4c(nc32)CCCC4)c(Cl)c(F)n1 [I-45, (S)-5-(1-(2-((3-chloro-6-(4-(cyclopropyl-methyl)-2-methyl-piperazin-1-yl)-2-fluoropyridin-4-yl)amino)-2-oxoethyl)-4-oxo-1,4,6,7,8,9-hexahydropyrido [1,2-a]pyrrolo[2,3-d]pyrimidin-3-yl)-3,4-difluoro-2-hydroxy-benzamide] | 0.0318 |  |  | 0.469 | 1.33 |
| C[C@H]1CN(CC(CO)CO)CCN1c1cc(NC(=O)Cn2cc(-c3cc(C(N)=O)c(O)c(F)c3F)c3c(=O)n4c(nc32)CCC4)c(Cl)c(F)n1 [I-46, (S)-5-(1-(2-((3-chloro-2-fluoro-6-(4-(3-hydroxy-2-(hydroxymethyl)propyl)-2-methylpiperazin-1-yl)pyridin-4-yl)amino)-2-oxoethyl)-4-oxo-4,6,7,8-tetrahydro-1H-dipyrrolo[1,2-a:2′,3′-d]pyrimidin-3-yl)-3,4-difluoro-2-hydroxybenzamide] | 0.00313 | 0.935 | 0.487 |  |  |
| NC(=O)c1cc(-c2cn(CC(=O)Nc3cc(N4CCCC4)nc(F)c3Cl)c3nc4n(c(=O)c23)CCC4)c(F)c(F)c1O [I-47, 5-(1-(2-((3-chloro-2-fluoro-6-(pyrrolidin-1-yl)pyridin-4-yl)amino)-2-oxoethyl)-4-oxo-4,6,7,8-tetrahydro-1H-dipyrrolo[1,2-a:2′,3′-d]pyrimidin-3-yl)-3,4-difluoro-2-hydroxy-benzamide] | 0.0239 | 0.166 | 0.212 |  |  |
| C[C@H]1CN(CC(F)F)CCN1c1cc(NC(=O)Cn2cc(-c3cc(C(N)=O)c(O)c(F)c3F)c3c(=O)n4c(nc32)CCC4)c(Cl)c(F)n1 [I-48, (S)-5-(1-(2-((3-chloro-6-(4-(2,2-difluoroethyl)-2-methylpiperazin-1-yl)-2-fluoropyridin-4-yl)amino)-2-oxoethyl)-4-oxo-4,6,7,8-tetrahydro-1H-dipyrrolo[1,2-a:2′,3′-d]pyrimidin-3-yl)-3,4-difluoro-2-hydroxy-benzamide] | 0.0137 | 0.0964 | 0.0646 |  |  |
| C[C@H]1CN(C2COC2)CCN1c1cc(NC(=O)Cn2cc(-c3cc(C(N)=O)c(O)c(F)c3F)c3c(=O)n4c(nc32)CCCCC4)c(Cl)c(F)n1 [I-50, (S)-5-(1-(2-((3-chloro-2-fluoro-6-(2-methyl-4-(oxetan-3-yl)piperazin-1-yl)pyridin-4-yl)amino)-2-oxo-ethyl)-4-oxo-4,6,7,8,9,10-hexahydro-1H-pyrrolo [2′,3′:4,5]pyrimido [1,2-a]azepin-3-yl)-3,4-difluoro-2-hydroxybenzamide] | 0.043 | 0.395 | 0.475 |  |  |
| C[C@H]1COCCN1c1cc(NC(=O)Cn2cc(-c3cc(C(N)=O)c(O)c(F)c3F)c3c(=O)n4c(nc32)CCCCC4)c(Cl)c(F)n1 [I-51, (S)-5-(1-(2-((3-chloro-2-fluoro-6-(3-methyl-morpholino)pyridin-4-yl)amino)-2-oxoethyl)-4-oxo-4,6,7,8,9,10-hexahydro-1H-pyrrolo [2′,3′:4,5]pyrimido [1,2-a]azepin-3-yl)-3,4-difluoro-2-hydroxy-benzamide] | 0.0891 | 3.05 | 0.974 |  |  |
| CCN1CCN(c2cc(NC(=O)Cn3cc(-c4cc(C(N)=O)c(O)c(F)c4F)c4c(=O)n5c(nc43)CCCCC5)c(Cl)c(F)n2)[C@@H](C)C1 [I-52, (S)-5-(1-(2-((3-chloro-6-(4-ethyl-2-methyl-piperazin-1-yl)-2-fluoropyridin-4-yl)amino)-2-oxoethyl)-4-oxo-4,6,7,8,9,10-hexahydro-1H-pyrrolo [2′,3′:4,5]pyrimido [1,2-a]azepin-3-yl)-3,4-difluoro-2-hydroxy-benzamide] | 0.0765 | 0.82 | 1.67 |  |  |
| C[C@H]1CNCCN1c1cc(NC(=O)Cn2cc(-c3cc(C(N)=O)c(O)c(F)c3F)c3c(=O)n4c(nc32)CCC4)c(Cl)c(F)n1 [I-53, (S)-5-(1-(2-((3-chloro-2-fluoro-6-(2-methyl-piperazin-1-yl)pyridin-4-yl)amino)-2-oxo-ethyl)-4-oxo-4,6,7,8-tetrahydro-1H-dipyrrolo [1,2-a:2′,3′-d]pyrimidin-3-yl)-3,4-difluoro-2-hydroxybenzamide] | 0.00583 | 0.504 | 0.646 |  |  |
| C[C@H]1CN(C)C[C@H](C)N1c1cc(NC(=O)Cn2cc(-c3cc(C(N)=O)c(O)c(F)c3F)c3c(=O)n4c(nc32)CCC4)c(Cl)cn1 [I-54, 5-(1-(2-((5-chloro-2-((2S,6S)-2,4,6-trimethylpiperazin-1-yl)pyridin-4-yl)amino)-2-oxoethyl)-4-oxo-4,6,7,8-tetrahydro-1H-dipyrrolo[1,2-a:2′,3′-d]pyrimidin-3-yl)-3,4-difluoro-2-hydroxy-benzamide] | 0.0976 |  |  | 5.98 | 2 |
| C[C@H]1CN(C)CCN1c1cc(NC(=O)Cn2cc(-c3cc(F)c(O)c(C(N)=O)c3)c3c(=O)n4c(nc32)CCC4)c(Cl)c(F)n1 [I-55, (S)-5-(1-(2-((3-chloro-6-(2,4-dimethyl-piperazin-1-yl)-2-fluoropyridin-4-yl)amino)-2-oxoethyl)-4-oxo-4,6,7,8-tetrahydro-1H-dipyrrolo [1,2-a:2′,3′-d]pyrimidin-3-yl)-3-fluoro-2-hydroxybenzamide] | 0.0015 |  |  | 0.0135 | 0.0166 |
| CN1C[C@H]2CC[C@@H](C1)N2c1cc(NC(=O)Cn2cc(-c3cc(C(N)=O)c(O)c(F)c3F)c3c(=O)n4c(nc32)CCC4)c(Cl)cn1 [I-56, 5-(1-(2-((5-chloro-2-((1R,5S)-3-methyl-3,8-diazabicyclo[3.2.1]octan-8-yl)pyridin-4-yl)amino)-2-oxoethyl)-4-oxo-4,6,7,8-tetrahydro-1H-dipyrrolo[1,2-a:2′,3′-d]pyrimidin-3-yl)-3,4-difluoro-2-hydroxy-benzamide] | 0.0387 | 0.684 | 0.586 |  |  |
| C[C@H]1CN(C)CCN1c1cc(NC(=O)Cn2cc(-c3cc(C(N)=O)c(O)c(F)c3F)c3c(=O)n4c(nc32)CC(C)(C)C4)c(Cl)c(F)n1 [I-57, (S)-5-(1-(2-((3-chloro-6-(2,4-dimethyl-piperazin-1-yl)-2-fluoropyridin-4-yl)amino)-2-oxoethyl)-7,7-dimethyl-4-oxo-4,6,7,8-tetrahydro-1H-dipyrrolo[1,2-a:2′,3′-d]pyrimidin-3-yl)-3,4-difluoro-2-hydroxy-benzamide] | 0.0112 |  |  | 0.114 | 0.0621 |
| C[C@H]1COCCN1c1cc(NC(=O)Cn2cc(-c3cc(C(N)=O)c(O)c(F)c3F)c3c(=O)n4c(nc32)CC(C)(C)C4)c(Cl)c(F)n1 [I-58, (S)-5-(1-(2-((3-chloro-2-fluoro-6-(3-methyl-morpholino)pyridin-4-yl)amino)-2-oxoethyl)-7,7-dimethyl-4-oxo-4,6,7,8-tetrahydro-1H-dipyrrolo[1,2-a:2′,3′-d]pyrimidin-3-yl)-3,4-difluoro-2-hydroxy-benzamide] | 0.0287 | 0.19 | 0.0962 |  |  |
| C[C@H]1COCCN1c1cc(NC(=O)Cn2cc(-c3cc(Cl)c(O)c(C(N)=O)c3)c3c(=O)n4c(nc32)CC(C)(C)C4)c(Cl)c(F)n1 [I-59, (S)-3-chloro-5-(1-(2-((3-chloro-2-fluoro-6-(3-methylmorpho-lino)pyridin-4-yl)amino)-2-oxoethyl)-7,7-dimethyl-4-oxo-4,6,7,8-tetrahydro-1H-dipyrrolo[1,2-a:2′,3′-d]pyrimidin-3-yl)-2-hydroxybenzamide] | 0.0234 | 0.19 | 0.0488 |  |  |
| C[C@H]1CN(C)CCN1c1cc(NC(=O)Cn2cc(-c3cc(Cl)c(O)c(C(N)=O)c3)c3c(=O)n4c(nc32)CC(C)(C)C4)c(Cl)c(F)n1 [I-60, (S)-3-chloro-5-(1-(2-((3-chloro-6-(2,4-dimethylpiperazin-1-yl)-2-fluoropyridin-4-yl)amino)-2-oxoethyl)-7,7-dimethyl-4-oxo-4,6,7,8-tetrahydro-1H-dipyrrolo[1,2-a:2′,3′-d]pyrimidin-3-yl)-2-hydroxybenzamide] | 0.0134 |  |  | 0.186 | 0.0972 |
